Measured values: ChEMBL document CHEMBL5131559, “Discovery and Preclinical Profiling of GSK3839919, a Potent HIV-1 Allosteric Integrase Inhibitor” (ACS Med Chem Lett, 2022)

Experiments:
[1] = test system: Human immunodeficiency virus 1; test: Antiviral activity against recombinant HIV1 NLRep-Rluc harbouring polymorphic T124/T125 integrase infected in human MT-2 cells assessed as fold change in inhibition of virus growth in presence of fetal bovine serum by measuring luciferase activity after 4 days; type: functional; set-up: reference not given here; settings: time 4 day
[2] = Metabolic stability in human liver microsomes assessed as parent compound disappearance by measuring half life at 0.5 uM in presence of NADPH by LC-MS/MS analysis; type: ADME, Microsome
[3] = test system: Human immunodeficiency virus 1; test: Antiviral activity against recombinant HIV1 NLRep-Rluc harbouring polymorphic T124/T125 integrase infected in human MT-2 cells assessed as inhibition of virus growth in presence of fetal bovine serum by measuring luciferase activity after 4 days; type: functional, organism-based; settings: Human immunodeficiency virus 1, NLRep, MT2, 96 h
[4] = Cytotoxicity against human MT2 cells; type: toxicity, cell-based
[5] = Oral bioavailability in Sprague-Dawley rat at 5 mg/kg by LC-MS/MS analysis; type: ADME, organism-based; settings: in vivo
[6] = AUC (0 to infinity) in Sprague-Dawley rat at 5 mg/kg, po by LC-MS/MS analysis; type: ADME, organism-based; set-up: time infinity, dose 5 mg/kg, route po; settings: in vivo
[7] = Clearance in Sprague-Dawley rat at 1 mg/kg, iv by LC-MS/MS analysis; type: ADME, organism-based; settings: in vivo
[8] = test system: Human immunodeficiency virus 1; test: Antiviral activity against recombinant HIV1 NLRep-Rluc harbouring polymorphic N124/A125 integrase infected in human MT-2 cells assessed as inhibition of virus growth in presence of fetal bovine serum by measuring luciferase activity after 4 days; type: functional, organism-based; settings: Human immunodeficiency virus 1, NLRep, MT2, 96 h

| Structure (SMILES) | fold change (FC) [1] | half-life at 0.5 µM [2] | EC50 [3] | CC50 [4] | bioavailability [5] | AUC(0-inf) [6] | clearance [7] | EC50 [8] |
| --- | --- | --- | --- | --- | --- | --- | --- | --- |
| Cc1nc(C)c([C@H](OC(C)(C)C)C(=O)O)c(N2CCC(C)(C)CC2)c1C1=CCN(CCCc2ccc(F)cc2)CC1 | 4.8 | 35.5 min | 7.6 nM | ≥ 22000 nM |  |  |  |  |
| Cc1nc(C)c([C@H](OC(C)(C)C)C(=O)O)c(N2CCC(C)(C)CC2)c1-c1ccc2c(c1)CCN(Cc1cccc(F)c1F)C2 |  |  | 4.2 nM | ≥ 24000 nM | 50% | 8.4 µM·h | 8.1 mL/min/kg | 13.6 nM |
| Cc1nc(C)c([C@H](OC(C)(C)C)C(=O)O)c(N2CCC(C)(C)CC2)c1-c1ccc2c(c1)CCN(Cc1ccc(F)cc1)C2 | 3.7 | 55 min | 5.9 nM | ≥ 22000 nM |  |  |  |  |
| Cc1nc(C)c([C@H](OC(C)(C)C)C(=O)O)c(N2CCC(C)(C)CC2)c1-c1ccc2c(c1)CCN(Cc1cccc(F)c1C)C2 |  |  | 2.6 nM | ≥ 24000 nM | 64% | 23.2 µM·h | 4 mL/min/kg | 8.1 nM |
| Cc1nc(C)c([C@H](OC(C)(C)C)C(=O)O)c(N2CCC(C)(C)CC2)c1-c1ccc2c(c1)CCN(c1ncnc3c1cnn3C)C2 |  |  | 2.9 nM | ≥ 17000 nM | 95% | 36.2 µM·h | 3.6 mL/min/kg | 7 nM |
| Cc1nc(C)c([C@H](OC(C)(C)C)C(=O)O)c(N2CCC(C)(C)CC2)c1-c1ccc2c(c1)CCN(c1ncnc3c1oc1ccccc13)C2 |  |  | 1.5 nM | ≥ 17000 nM | 72% | 226 µM·h | 0.5 mL/min/kg | 3.4 nM |
| Cc1nc(C)c([C@H](OC(C)(C)C)C(=O)O)c(N2CCC(C)(C)CC2)c1-c1ccc(OCCc2ccc(F)cc2)nc1 | 7.2 | > 120 min | 12.3 nM | ≥ 22000 nM |  |  |  |  |
| Cc1cccc(F)c1CN1CCc2cc(-c3c(C)nc(C)c([C@H](OC(C)(C)C)C(=O)O)c3N3CCC(C)(C)CC3)ccc2C1 |  |  | 5.6 nM | ≥ 24000 nM | 70% | 16 µM·h | 5.8 mL/min/kg | 5.3 nM |
| Cc1nc(C)c([C@H](OC(C)(C)C)C(=O)O)c(N2CCC(C)(C)CC2)c1-c1ccc2c(c1)CCN(Cc1ccc(F)cc1F)C2 |  |  | 2.5 nM | ≥ 24000 nM | > 100% | 7.3 µM·h | 20.1 mL/min/kg | 5.4 nM |
| Cc1nc(C)c([C@H](OC(C)(C)C)C(=O)O)c(N2CCC(C)(C)CC2)c1-c1cnc(OCCc2ccc(F)cc2)nc1 | 4.8 | 22 min | 9 nM | ≥ 22000 nM |  |  |  |  |
